Data reported in article PMC6278378, “Virtual Screening, Biological Evaluation, and 3D-QSAR Studies of New HIV-1 Entry Inhibitors That Function via the CD4 Primary Receptor” (Molecules, 2018).
Entries after “also recorded” stand apart in the source; their conditions may differ. Peptide text beside a SMILES is read from it.

Experiments:
CD4 = molecular target: T1, CD4 (Homo sapiens, UniProt P01730); assay: CD4 competitive binding assay (FITC anti-human CD4 antibody, SUP-T1 cells); settings: for Inhibition at 100 μM (%) / inhibition at 100 µM: inhibition of anti-human CD4 antibody binding to SUP-T1 cells; for PInhibition (Experimental Data): transformed from % inhibition at 100 μM, presented as -ln
T1 construct: endogenous in cells; host or cells: SUP-T1 cells
Method: We chose CD4-expressing SUP-T1 cells to perform the competitive CD4 binding assay. Non-labeled anti-human CD4 antibody (RPA-T4 clone, BioLegend, San Diego, CA, USA) was used as a positive control.
The SUP-T1 cells were cultured in RPMI1640 medium supplemented with 10% (v/v) fetal bovine serum (FBS), 100 IU penicillin, 0.1 mg/mL streptomycin, and 2 mM L-glutamine. After collecting and washing twice with fluorescence activated cell sorting (FACS) buffer (0.5% BSA, 0.05% sodium azide in PBS) by centrifugation, SUP-T1 cells were seeded in a 96-well v-bottom plate at 5 × 10^5 cells/well. The supernatant was discarded by centrifugation and the cell pellet was resuspended with 50 μL various 2× concentrations of test compounds and 50 μL fluorescein isothiocyanate (FITC) labeled anti-human CD4 antibody (RPA-T4 clone, BioLegend, San Diego, CA, USA). The plate was incubated for 40 min on ice. After incubation, the cells were washed twice with FACS buffer by centrifugation, and then resuspended with the assay buffer. The FACS buffer was added at a volume of 50 μL per well. The fluorescence (485EX/528EM) was recorded using a Synergy II plate reader (BioTek Instruments, Inc., Winooski, VT, USA). Experimental data were generated in duplicate each time, and from at least three independent experiments. The mean values of fluorescence were normalized and expressed as a percentage of the control group values. Binding curves and IC50 values were calculated by GraphPad Prism 7 (GraphPad Software Inc., La Jolla, CA, USA) and presented as the mean ± SEM.

HIV-1 (NL4-3 strain) = assay: microbe, parasite or virus in culture; assay type: cell-based; settings: Human immunodeficiency virus 1, NL43, PBMC; 0.1 μM, PBMCs; read-out: Inhibition of HIV-1 entry (intracellular p24)
Method: We also performed anti-HIV-1 entry assays to investigate the potential suppression by 3 of HIV-1 infection via its entry mechanism.
The Anti-HIV-1 entry assay was performed by measuring intercellular p24 antigen. Before the infection, PBMCs (2.5 × 10^6 cells/mL) were added into 96-well plates at 100 μL/well, then co-incubated with compounds of various concentrations for 2 h. PBMCs were then washed twice with PBS and infected with the NL4-3 strain of HIV-1 at an MOI of 0.02 for 2 h at 37 °C with 5% CO2 (CO2 incubator, Eppendorf, Hamburg, Germany). After two washes with PBS (1200 rpm, 20 °C, 5 min), the cells were re-suspended in 100 µL complete medium and incubated for 24 h. Subsequently, the PBMCs were washed and resuspended in 100 µL/well lysis buffer containing 1% protease inhibitor cocktail (Sigma-Aldrich, St. Louis, MO, USA). The intercellular p24 antigen was measured according to the protocol provided with the HIV-1 ELISA kit (PerkinElmer Inc. Waltham, MA, USA).

HIV-1 = test system: HIV-1; set-up: method as in PMID 12207905; settings: cited from earlier work
HIV-1 NL4-3 strain = assay: Anti-HIV-1 infection assay (CEM-GFP reporter cells, GFP fluorescence); assay type: cell-based; settings: Human immunodeficiency virus 1, NL43, HIV-1 NL4-3, 4-5 days
Text: We performed anti-HIV-1 infection and anti-HIV-1 entry assays by measuring GFP expression and intracellular p24 antigen level. For the anti-HIV-1 infection assays, the CEM-GFP reporter cell line was used, and HIV-1 infection induced a 10- to 1000-fold increase in the relative fluorescence of the cells.
The CEM-GFP cells were obtained from the NIH AIDS program (NIH AIDS Reagent Program, Division of AIDS, NIAID, NIH: CEM-GFP Cells from Dr. Jacques Corbeil) and cultured in RPMI 1640 medium containing 10% FBS, 1% penicillin-streptomycin (Life Technologies, Carlsbad, CA, USA), 1% 200 mM L-glutamine (Mediatech-VWR, Aurora, CO, USA), and 500 µg/mL G418 (BioPioneer Inc, San Diego, CA, USA). After collecting and counting, the CEM-GFP cells were infected with HIV-1 NL4-3 strain (MOI 0.01) at 37 °C for 2–3 h, cells were then washed twice with PBS, and 10^5 cells/well were seeded into a 96-well plate in the presence of different concentrations of test compounds. After culturing at 37 °C with 5% CO2 for 4 or 5 days, the GFP fluorescence (485EX/528EM) was measured using a Synergy II microplate reader (BioTek Instruments, Inc., Winooski, VT, USA).

CEM-GFP cell line = assay: CEM-GFP cell viability (CellTiter Blue); assay type: cell-based; settings: highest concentration 25 µM
Text: Figure 3 The competitive CD4 binding assay results of analogs of 3 (A).
We also evaluated the anti-HIV-1 infection activity of 29 using the CEM-GFP reporter cell line.

[1] = test system: HIV-1 nucleocapsid-p7 protein (NC-p7); set-up: method as in PMID 12207905; settings: cited from earlier work

| SMILES | Inhibition at 100 μM (%) (CD4) | PInhibition (Experimental Data) (CD4) | further results |
| --- | --- | --- | --- |
| Cc1cc(=O)oc2c(O)c(O)ccc12 [Compound 11] | 10.83 | 3.084 | – |
| c1cc(CN2CCCNCCNCCCNCC2)ccc1CN1CCCNCCNCCCNCC1 [AMD3100, reference compound] | – | – | inhibition at 0.1 µM (HIV-1 (NL4-3 strain)): 57.6% |
| Cc1cc2c(=O)cc(-c3ccccc3)oc2c(C(=O)O)c1C [Compound 27] | – | 4.024 | – |
| CCCCCCCCCCCC(=O)c1c(O)c2ccccc2oc1=O [Compound 17] | – | 3.774 | – |
| CCCCC(=O)c1c(O)ccc2c(C)cc(=O)oc12 [Compound 8] | 12.04 | 3.136 | – |
| O=C(/C=C/c1ccccc1)CCc1c(O)c2ccccc2oc1=O [Compound 20] | – | 3.874 | – |
| Cc1ccc(-c2cc(=O)c3cccc(CC(=O)O)c3o2)cc1 [Compound 22] | – | 3.809 | – |
| Cn1c(=O)c2c(nc(NCCNc3nc4c(c(=O)n(C)c(=O)n4C)n3C)n2C)n(C)c1=O [Compound 1] | – | – | inhibition at 100 µM (CD4): 34.2% |
| CCC(=O)c1cc2ccc(O)cc2oc1=O [Compound 13] | 11.80 | 3.126 | – |
| Nc1ccc(S(=O)(=O)c2ccc(NCN3C(=O)NC(=O)C(=O)C3=O)cc2)cc1 [Compound 2] | – | – | inhibition at 100 µM (CD4): 36.9% |
| O=C(O)Cc1cccc2c(=O)cc(-c3ccccc3)oc12 [Compound 21] | – | 3.702 | inhibition at 100 µM (CD4): > 20% |
| O=C(O)Cc1cccc2c(=O)cc(Cc3ccccc3)oc12 [Compound 24] | – | 3.920 | – |
| CSCCC(NC(=O)C(CC(C)C)NC(=O)CNC(=O)C(NC(=O)C(Cc1ccccc1)NC(=O)C(CCC(N)=O)NC(=O)C(CC(=O)O)NC(=O)C(CO)NC(=O)C(CCCCN)NC(=O)C1CCCN1C(=O)C(NC(=O)C(N)CC(=O)O)C(C)C)C(C)C)C(N)=O (stereo not drawn) [Compound 9] (H-DVPKSDQFVGLM-NH2; configuration not given here) | 6.40 | 2.835 | – |
| O=C(O)Cc1cc(=O)oc2cc(O)ccc12 [Compound 10] | 16.98 | 3.311 | – |
| CC(=O)c1c(O)c2ccccc2oc1=O [Compound 7] | 8.87 | 2.988 | – |
| O=C(O)CCc1cccc2c(=O)cc(-c3ccccc3)oc12 [Compound 23] | – | 3.690 | – |

| SMILES | Inhibition at 100 μM (%) (CD4) | PInhibition (Experimental Data) (CD4) | further results |
| --- | --- | --- | --- |
| Cc1cc(=O)c2c(o1)-c1c(cc(O)c(O)c1C(=O)O)OC2 [Compound 30] | 6.48 | 2.841 | – |
| CC(=O)/C=C(\c1ccccc1)c1c(O)c2ccccc2oc1=O [Compound 15] | 15.80 | 3.273 | – |
| CCCCC(=O)c1c(O)c2ccccc2oc1=O [Compound 18] | – | 3.771 | – |
| Nc1ccn([C@H]2O[C@H](CO)[C@@H]3[O][Sn]([c]4ccccc4)([c]4ccccc4)[O][C@H]32)c(=O)n1 [Compound 5] | 33.09 | – | – |
| O=c1oc2cc(O)ccc2c2c1CCCC2 [Compound 12] | 5.27 | 2.745 | – |
| O=c1oc2cccc(O)c2c(O)c1Cc1ccccc1 [Compound 14] | 8.47 | 2.966 | – |
| O=C(O)/C=C/c1c2ccc(=O)c(O)c-2oc2c(O)c(O)ccc12 [Compound 28] | – | 4.566 | – |
| O=C(O)Cc1cccc2c(=O)cc(C3CCCCC3)oc12 [Compound 25] | – | 3.541 | – |
| Cc1cc(=O)oc2cc(O)cc(O)c12 [Compound 6] | 5.64 | 2.762 | – |
| O=C(O)Cc1cc(=O)oc2cc(O)ccc12 [Compound 19] | – | 3.668 | – |
| Cc1cc(=O)c2cccc(CC(=O)O)c2o1 [Compound 26] | 18.10 | 3.344 | – |
| O=C(O)/C=C/c1c2ccc(=O)c(O)c-2oc2c(O)c(O)ccc12 [Compound 29] | – | 4.763 | inhibition of HIV-1 infection (HIV-1): inhibit HIV-1 infection; IC50 (HIV-1 NL4-3 strain): 2 µM; Cytotoxicity in CEM-GFP cell line (CEM-GFP cell line): complete lack of cytotoxicity effect; also recorded: no cytotoxicity; IC50 (CD4; SUP-T1 cells, anti-human CD4 antibody competition): 14 µM; binding to NC-p7 [1]: bind |
| CCC(=O)c1c(O)c2ccccc2oc1=O [Compound 16] | 19.76 | 3.391 | – |
| O=c1oc2c(cc1O)oc(=O)c1cc(O)c(O)c(O)c12 [Compound 31] | – | – | inhibition at 100 µM (CD4): 16% |
| N[C@@H](CSC1(c2ccc(Cl)cc2)c2ccccc2-c2ccccc21)C(=O)O [Compound 4] | – | – | inhibition at 100 µM (CD4): 22.6% |
| O=C(O)CCC(=O)c1ccc(Oc2ccccc2)cc1 [Compound 32] | – | 3.400 | – |
